Results taken from patent publication US10899753B2, “Inhibiting agents for Bruton's tyrosine kinase” (BIOGEN MA INC., priority 2018, dated 2021).

Tests used:
BTK [1] = target: T1, BTK (Homo sapiens (Human), UniProt Q06187); test: In Vitro PD Assay in Human Whole Blood (pBTK assay); format: cell-based; details: human heparinized whole blood, 37° C. for 30 min, total BTK capture and phosphotyrosine detection (ECL)
Procedure: In Vitro PD Assay in Human Whole Blood
Human heparinized venous blood was purchased from Bioreclamation, Inc. or SeraCare Life Sciences and shipped overnight. Whole blood was aliquoted into 96-well plate and “spiked” with serial dilutions of test compound in DMSO or with DMSO without drug. The final concentration of DMSO in all wells was 0.1%. The plate was incubated at 37° C. for 30 min. Lysis buffer containing protease and phosphatase inhibitors was added to the drug-containing samples and one of the DMSO-only samples (+PPi, high control), while lysis buffer containing protease inhibitors was added to the other DMSO-only samples (−PPi, low control). All of the lysed whole blood samples were subjected to the total BTK capture and phosphotyrosine detection method described in US20160311802, incorporated herein by reference.

BTK [2] = target: T1, BTK; test: In Vitro BTK Kinase Assay: BTK-POLYGAT-LS ASSAY; format: biochemical; details: fluorescein-labeled polyGAT peptide 100 nM, BTK enzyme 0.25 nM, 30 minutes, TRF
Procedure: In Vitro BTK Kinase Assay: BTK-POLYGAT-LS ASSAY
The purpose of the BTK in vitro assay is to determine compound potency against BTK through the measurement of IC50. […] For a typical assay, a […] aliquot of a ATP/peptide master mix (final concentration; ATP […], polyGAT 100 nM) in kinase buffer (10 mM Tris-HCl pH 7.5, 10 mM MgCl2, 200 μM Na3PO4, 5 mM DTT, 0.01% Triton X-100, and 0.2 mg/ml casein) is added to each well. […] The assay is incubated for 30 minutes before being stopped with 28 μL of a 50 mM EDTA solution. […] The plate is covered and incubated for 45 minutes at room temperature. Time resolved fluorescence (TRF) on Molecular Devices M5 (332 nm excitation; 488 nm emission; 518 nm fluorescein emission) is measured.

T1 sequence (Q06187 whole entry): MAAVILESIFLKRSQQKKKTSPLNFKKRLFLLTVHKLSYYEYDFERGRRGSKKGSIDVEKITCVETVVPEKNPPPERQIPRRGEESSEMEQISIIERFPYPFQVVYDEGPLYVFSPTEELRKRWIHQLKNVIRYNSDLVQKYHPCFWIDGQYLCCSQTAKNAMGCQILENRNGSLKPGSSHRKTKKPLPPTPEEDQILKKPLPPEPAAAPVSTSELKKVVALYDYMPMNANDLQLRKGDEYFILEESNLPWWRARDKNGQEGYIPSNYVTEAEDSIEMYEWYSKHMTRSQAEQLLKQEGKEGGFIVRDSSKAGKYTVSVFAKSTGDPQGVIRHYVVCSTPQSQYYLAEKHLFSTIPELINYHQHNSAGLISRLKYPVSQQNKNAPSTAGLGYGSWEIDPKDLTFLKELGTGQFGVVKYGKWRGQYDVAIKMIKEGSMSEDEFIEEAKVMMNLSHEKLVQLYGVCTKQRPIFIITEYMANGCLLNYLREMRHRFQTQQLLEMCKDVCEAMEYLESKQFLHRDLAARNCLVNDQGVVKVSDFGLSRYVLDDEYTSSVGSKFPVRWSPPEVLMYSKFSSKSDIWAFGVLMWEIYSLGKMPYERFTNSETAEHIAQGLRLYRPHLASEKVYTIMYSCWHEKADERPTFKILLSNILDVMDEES

| SMILES | IC50 (BTK [1]) [nM] | IC50 (BTK [2]) [nM] |
| --- | --- | --- |
| Cc1cc(-c2ncnc(Nc3ccn(C)n3)n2)ccc1CNC(=O)c1nc(C(C)(C)C)no1 [Compound 2, 3-(tert-butyl)-N-(2-methyl-4-(4-((1-methyl-1H-pyrazol-3-yl)amino)-1,3,5-triazin-2-yl)benzyl)-1,2,4-oxadiazole-5-carboxamide] | 500 to 10000 | < 1 |
| Cc1cc(-c2ncnc(Nc3ccn(C)n3)n2)ccc1CNC(=O)c1cnc(C(C)(C)C)o1 [Compound 3, 2-(tert-butyl)-N-(2-methyl-4-(4-((1-methyl-1H-pyrazol-3-yl)amino)-1,3,5-triazin-2-yl)benzyl)oxazole-5-carboxamide] | 500 to 10000 | 1 to 10 |
| Cc1cc(-c2ncnc(Nc3ccn(C)n3)n2)ccc1CNC(=O)c1nn(C(C)(C)C)cc1F [Compound 4, 1-(tert-butyl)-4-fluoro-N-(2-methyl-4-(4-((1-methyl-1H-pyrazol-3-yl)amino)-1,3,5-triazin-2-yl)benzyl)-1H-pyrazole-3-carboxamide] | > 10000 | 1 to 10 |
| Cn1ccc(Nc2ncnc(-c3ccc(CNC(=O)c4noc(C(C)(C)C)n4)c(Cl)c3)n2)n1 [Compound 5, 5-(tert-butyl)-N-(2-chloro-4-(4-((1-methyl-1H-pyrazol-3-yl)amino)-1,3,5-triazin-2-yl)benzyl)-1,2,4-oxadiazole-3-carboxamide] | 500 to 10000 | 1 to 10 |
| Cn1ccc(Nc2ncnc(-c3ccc(CNC(=O)c4nc(C(C)(C)C)no4)c(Cl)c3)n2)n1 [Compound 6, 3-(tert-butyl)-N-(2-chloro-4-(4-((1-methyl-1H-pyrazol-3-yl)amino)-1,3,5-triazin-2-yl)benzyl)-1,2,4-oxadiazole-5-carboxamide] | 500 to 10000 | < 1 |
| Cn1ccc(Nc2ncnc(-c3ccc(CNC(=O)c4noc(C(C)(C)C)n4)c(C(F)(F)F)c3)n2)n1 [Compound 7, 5-(tert-butyl)-N-(4-(4-((1-methyl-1H-pyrazol-3-yl)amino)-1,3,5-triazin-2-yl)-2-(trifluoromethyl)benzyl)-1,2,4-oxadiazole-3-carboxamide] | – | 1 to 10 |
| Cn1ccc(Nc2ncnc(-c3ccc(CNC(=O)c4nc(C(C)(C)C)no4)c(C(F)(F)F)c3)n2)n1 [Compound 8, 3-(tert-butyl)-N-(4-(4-((1-methyl-1H-pyrazol-3-yl)amino)-1,3,5-triazin-2-yl)-2-(trifluoromethyl)benzyl)-1,2,4-oxadiazole-5-carboxamide] | – | 1 to 10 |
| Cc1c(CNC(=O)c2noc(C(C)(C)C)n2)ccc(-c2ncnc(Nc3ccn(C)n3)n2)c1F [Compound 9, 5-(tert-butyl)-N-(3-fluoro-2-methyl-4-(4-((1-methyl-1H-pyrazol-3-yl)amino)-1,3,5-triazin-2-yl)benzyl)-1,2,4-oxadiazole-3-carboxamide] | 100 to 500 | < 1 |
| Cc1c(CNC(=O)c2nc(C(C)(C)C)no2)ccc(-c2ncnc(Nc3ccn(C)n3)n2)c1F [Compound 10, 3-(tert-butyl)-N-(3-fluoro-2-methyl-4-(4-((1-methyl-1H-pyrazol-3-yl)amino)-1,3,5-triazin-2-yl)benzyl)-1,2,4-oxadiazole-5-carboxamide] | – | < 1 |
| Cc1cc(-c2ncnc(Nc3cnn(C)c3)n2)ccc1CNC(=O)c1noc(C(C)(C)C)n1 [Compound 11, 5-(tert-butyl)-N-(2-methyl-4-(4-((1-methyl-1H-pyrazol-4-yl)amino)-1,3,5-triazin-2-yl)benzyl)-1,2,4-oxadiazole-3-carboxamide] | 100 to 500 | < 1 |
| Cc1cc(-c2ncnc(Nc3cnn(C)c3)n2)ccc1CNC(=O)c1nc(C(C)(C)C)no1 [Compound 12, 3-(tert-butyl)-N-(2-methyl-4-(4-((1-methyl-1H-pyrazol-4-yl)amino)-1,3,5-triazin-2-yl)benzyl)-1,2,4-oxadiazole-5-carboxamide] | 100 to 500 | < 1 |
| Cc1c(CNC(=O)c2noc(C(C)(C)C)n2)ccc(-c2ncnc(Nc3cnn(C)c3)n2)c1F [Compound 13, 5-(tert-butyl)-N-(3-fluoro-2-methyl-4-(4-((1-methyl-1H-pyrazol-4-yl)amino)-1,3,5-triazin-2-yl)benzyl)-1,2,4-oxadiazole-3-carboxamide] | < 100 | < 1 |
| Cc1c(CNC(=O)c2nc(C(C)(C)C)no2)ccc(-c2ncnc(Nc3cnn(C)c3)n2)c1F [Compound 14, 3-(tert-butyl)-N-(3-fluoro-2-methyl-4-(4-((1-methyl-1H-pyrazol-4-yl)amino)-1,3,5-triazin-2-yl)benzyl)-1,2,4-oxadiazole-5-carboxamide] | < 100 | < 1 |
| Cn1cc(Nc2ncnc(-c3ccc(CNC(=O)c4noc(C(C)(C)C)n4)c(Cl)c3)n2)cn1 [Compound 15, 5-(tert-butyl)-N-(2-chloro-4-(4-((1-methyl-1H-pyrazol-4-yl)amino)-1,3,5-triazin-2-yl)benzyl)-1,2,4-oxadiazole-3-carboxamide] | 100 to 500 | < 1 |
| Cn1cc(Nc2ncnc(-c3ccc(CNC(=O)c4nc(C(C)(C)C)no4)c(Cl)c3)n2)cn1 [Compound 16, 3-(tert-butyl)-N-(2-chloro-4-(4-((1-methyl-1H-pyrazol-4-yl)amino)-1,3,5-triazin-2-yl)benzyl)-1,2,4-oxadiazole-5-carboxamide] | 100 to 500 | < 1 |
| Cn1cc(Nc2ncnc(-c3ccc(CNC(=O)c4nc(C(C)(C)C)no4)c(C(F)(F)F)c3)n2)cn1 [Compound 18, 3-(tert-butyl)-N-(4-(4-((1-methyl-1H-pyrazol-4-yl)amino)-1,3,5-triazin-2-yl)-2-(trifluoromethyl)benzyl)-1,2,4-oxadiazole-5-carboxamide] | – | < 1 |
| Cn1ccc(Nc2ncnc(-c3ccc(CNC(=O)c4noc(C(C)(C)C)n4)c(C(F)(F)F)c3F)n2)n1 [Compound 19, 5-(tert-butyl)-N-(3-fluoro-4-(4-((1-methyl-1H-pyrazol-3-yl)amino)-1,3,5-triazin-2-yl)-2-(trifluoromethyl)benzyl)-1,2,4-oxadiazole-3-carboxamide] | – | 1 to 10 |
| Cn1cc(Nc2ncnc(-c3ccc4c(c3)CN(C3COC3)CC[C@H]4NC(=O)c3cn(C(C)(C)C)nn3)n2)cn1 [Compound 24, 1-tert-butyl-N-[(5R)-8-[4-[(1-methylpyrazol-4-yl)amino]-1,3,5-triazin-2-yl]-2-(oxetan-3-yl)-1,3,4,5-tetrahydro-2-benzazepin-5-yl]triazole-4-carboxamide] | < 100 | – |
| Cn1ccc(Nc2ncnc(-c3ccc4c(c3)CN(CC(F)(F)F)CC[C@H]4NC(=O)c3noc(C(C)(C)C)n3)n2)n1 [Compound 25, 5-tert-butyl-N-[(5R)-8-[4-[(1-methylpyrazol-3-yl)amino]-1,3,5-triazin-2-yl]-2-(2,2,2-trifluoroethyl)-1,3,4,5-tetrahydro-2-benzazepin-5-yl]-1,2,4-oxadiazole-3-carboxamide] | < 100 | – |
| Cc1cc(-c2ncnc(Nc3cnn(C)c3)n2)ccc1CNC(=O)c1cc(C(C)(C)C)on1 [Compound 38] | 100 to 500 | – |
| Cc1cc(-c2ncnc(Nc3cnn(C)c3)n2)ccc1CNC(=O)c1noc(C2[C@@H](C)[C@H]2C)n1 (stereo partly drawn) [Compound 41, 5-(2,3-cis-dimethylcyclopropyl)-N-(2-methyl-4-(4-((1-methyl-1H-pyrazol-4-yl)amino)-1,3,5-triazin-2-yl)benzyl)-1,2,4-oxadiazole-3-carboxamide] | 500 to 10000 | – |
| Cn1ccc(Nc2ncnc(-c3ccc(CNC(=O)c4noc(C(C)(C)C)n4)c(CC(F)F)c3)n2)n1 [Compound 67, 5-(tert-butyl)-N-(2-(2,2-difluoroethyl)-4-(4-((1-methyl-1H-pyrazol-3-yl)amino)-1,3,5-triazin-2-yl)benzyl)-1,2,4-oxadiazole-3-carboxamide] | – | 1 to 10 |
| C[C@@H](NC(=O)c1nc(C(C)(C)C)no1)c1ccc(-c2ncnc(Nc3cnn(C)c3)n2)c(F)c1Cl [Compound 70, (R)-3-(tert-butyl)-N-(1-(2-chloro-3-fluoro-4-(4-((1-methyl-1H-pyrazol-4-yl)amino)-1,3,5-triazin-2-yl)phenyl)ethyl)-1,2,4-oxadiazole-5-carboxamide] | < 100 | – |
| C[C@@H](NC(=O)c1nc(C(C)(C)C)no1)c1ccc(-c2ncnc(Nc3ccn(C)n3)n2)c(F)c1C(F)F [Compound 83, (R)-3-(tert-butyl)-N-(1-(2-(difluoromethyl)-3-fluoro-4-(4-((1-methyl-1H-pyrazol-3-yl)amino)-1,3,5-triazin-2-yl)phenyl)ethyl)-1,2,4-oxadiazole-5-carboxamide] | – | 1 to 10 |
| Cc1cc(-c2ncnc(Nc3cnn(C)c3)n2)ccc1CNC(=O)c1nnc(C(C)(C)C)o1 [Compound 110, 5-(tert-butyl)-N-(2-methyl-4-(4-((1-methyl-1H-pyrazol-4-yl)amino)-1,3,5-triazin-2-yl)benzyl)-1,3,4-oxadiazole-2-carboxamide] | – | 1 to 10 |
